SMILES strings stand for the structures. Several values for one entry are separate records, joined by “and”; a condition that tells them apart may be missing. Identical values can stand only once. Inconclusive results and toxic doses are left out.

Experimental findings from PubChem BioAssay AID192 (DTP/NCI, 2004) are described below.

This assay deals with BDF1 mice, B16 melanoma ip, median survival T/C. Briefly: NCI In Vivo Anticancer Drug Screen. Data for tumor model B16 Melanoma (intraperitoneal) in B6D2F1 (BDF1) mice. The following applies: endpoint: median survival time, higher = longer survival. The procedure, abridged:
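Survival or tumor size is measured after treatment of tumor-bearing mice and normalised to the vehicle-treated control group.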

The mark [1] stands for this setting: dose: 6.25 mg/kg/injection, schedule: Q01DX009 (ip), vehicle: saline with Tween-80.
[2] abbreviates: dose: 12.5 mg/kg/injection, schedule: Q01DX009 (ip), vehicle: saline with Tween-80.
Setting [3] is: dose: 25.0 mg/kg/injection, schedule: Q01DX009 (ip), vehicle: saline with Tween-80.
[4] abbreviates: dose: 50.0 mg/kg/injection, schedule: Q01DX009 (ip), vehicle: Klucel (hydroxypropylcellulose) (HPC).
[5] abbreviates: dose: 100.0 mg/kg/injection, schedule: Q01DX009 (ip), vehicle: Klucel (hydroxypropylcellulose) (HPC).
The mark [6] stands for this setting: dose: 100.0 mg/kg/injection, schedule: Q01DX009 (ip), vehicle: saline.
Setting [7] is: dose: 200.0 mg/kg/injection, schedule: Q01DX009 (ip), vehicle: Klucel (hydroxypropylcellulose) (HPC).
Where [8] appears, read: dose: 200.0 mg/kg/injection, schedule: Q01DX009 (ip), vehicle: saline.
[9] abbreviates: dose: 400.0 mg/kg/injection, schedule: Q01DX009 (ip), vehicle: saline.
Setting [10] is: dose: 25.0 mg/kg/injection, schedule: Q01DX009 (ip), vehicle: Klucel (hydroxypropylcellulose) (HPC).
Where [11] appears, read: dose: 50.0 mg/kg/injection, schedule: Q01DX009 (ip), vehicle: saline with Tween-80.
Where [12] appears, read: dose: 100.0 mg/kg/injection, schedule: Q01DX009 (ip), vehicle: saline with Tween-80.
The mark [13] stands for this setting: dose: 50.0 mg/kg/injection, schedule: Q04DX003 (ip), vehicle: saline.
The mark [14] stands for this setting: dose: 100.0 mg/kg/injection, schedule: Q04DX003 (ip), vehicle: saline.

As to `CCCCCCCCCCCC1=C(O)C(=O)C=C(O)C1=O`, the T/C is, setting by setting: under setting [1], 102 % of control; under setting [2], 96 % of control; under setting [3], 86 % of control.
As to `CC(C)(C)CC(N)=O`, the T/C was 112 % of control under setting [4]; 100 % of control under setting [5]; 107 % of control under setting [6]; 105 % of control under setting [7]; 123 % of control under setting [8]; 105 % of control (dose: 400.0 mg/kg/injection, schedule: Q01DX009 (ip), vehicle: Klucel (hydroxypropylcellulose) (HPC)). The T/C under setting [9] was 107 % of control.
For `Cc1ccc(N2C(=O)CC(Sc3ccccc3N)C2=O)cc1` (centres undefined), the T/C is 97 % of control under setting [10]; 91 % of control under setting [4]; 86 % of control and 91 % of control under setting [5].
As for `CCN1C[C@]2(COC)[C@H](O)C[C@H](OC)[C@]34C1[C@H]([C@H](OC)[C@H]23)[C@]1(OC(C)=O)[C@H]2[C@@H](OC(=O)c3ccccc3)[C@](O)(C[C@H]24)[C@@H](OC)[C@@H]1O`, the T/C is 92 % of control (dose: 15.0 micrograms/kg/injection, schedule: Q01DX009 (ip), vehicle: Klucel (hydroxypropylcellulose) (HPC)); 89 % of control (dose: 60.0 micrograms/kg/injection, schedule: Q01DX009 (ip), vehicle: Klucel (hydroxypropylcellulose) (HPC)); 94 % of control (dose: 120.0 micrograms/kg/injection, schedule: Q01DX009 (ip), vehicle: Klucel (hydroxypropylcellulose) (HPC)).
For `CC(=O)NC1=C(N2CC2)C(=O)C(NC(C)=O)=C(N2CC2)C1=O`, the T/C runs as follows: (dose: 0.12 mg/kg/injection, schedule: Q01DX009 (ip), vehicle: saline with Tween-80) 106 % of control and 112 % of control; (dose: 0.25 mg/kg/injection, schedule: Q01DX005 (ip), vehicle: saline with Tween-80) 103 % of control and 109 % of control; (dose: 0.25 mg/kg/injection, schedule: Q01DX009 (ip), vehicle: saline with Tween-80) 107 % of control and 112 % of control; (dose: 0.5 mg/kg/injection, schedule: Q01DX005 (ip), vehicle: saline with Tween-80) 107 % of control; (dose: 0.5 mg/kg/injection, schedule: Q01DX009 (ip), vehicle: saline with Tween-80) 124 % of control; (dose: 1.0 mg/kg/injection, schedule: Q01DX005 (ip), vehicle: saline with Tween-80) 116 % of control and 121 % of control. For the same compound, the T/C is 157 % of control (dose: 2.0 mg/kg/injection, schedule: Q01DX009 (ip), vehicle: saline with Tween-80); 102 % of control (dose: 7.0 micrograms/kg/injection, schedule: Q01DX009 (ip), vehicle: saline); 95 % of control (dose: 15.0 micrograms/kg/injection, schedule: Q01DX009 (ip), vehicle: saline); 92 % of control (dose: 31.0 micrograms/kg/injection, schedule: Q01DX009 (ip), vehicle: saline); 116 % of control (dose: 62.0 micrograms/kg/injection, schedule: Q01DX009 (ip), vehicle: saline); 95 % of control (dose: 125.0 micrograms/kg/injection, schedule: Q01DX009 (ip), vehicle: saline).
`O=[N+]([O-])c1ccc(Oc2cc(Cl)c(Cl)cc2Cl)c([N+](=O)[O-])c1`: the T/C under setting [10] was 107 % of control, the T/C under setting [4] was 106 % of control and the T/C under setting [5] was 99 % of control.
On to `C[C@]12CC[C@H](OC(=O)COc3ccc(N(CCCl)CCCl)cc3)C[C@@H]1CC[C@@H]1[C@@H]2CC[C@]2(C)NC(=O)CC[C@@H]12`, for which the T/C is 111 % of control (dose: 4.0 mg/kg/injection, schedule: Q01DX009 (ip), vehicle: saline with Tween-80) and 109 % of control (dose: 32.0 mg/kg/injection, schedule: Q01DX009 (ip), vehicle: saline with Tween-80).
With `O=NN1CCNC1=O`, the T/C is 98 % of control (dose: 1.5 mg/kg/injection, schedule: Q01DX009 (ip), vehicle: Klucel (hydroxypropylcellulose) (HPC)); 110 % of control (dose: 3.0 mg/kg/injection, schedule: Q01DX009 (ip), vehicle: Klucel (hydroxypropylcellulose) (HPC)); 101 % of control (dose: 6.0 mg/kg/injection, schedule: Q01DX009 (ip), vehicle: Klucel (hydroxypropylcellulose) (HPC)).
On to `[O-][n+]1c(CCl)nc2cccc3c2c1-c1ccccc1-3`, for which the T/C under setting [3] was 101 % of control, the T/C under setting [11] was 96 % of control and the T/C under setting [12] is 90 % of control.
`CN(C)CCCC(=O)O`: the T/C was 98 % of control under setting [6], 96 % of control under setting [8] and 93 % of control under setting [9].
As for `O=C(Nc1ccccc1)c1ccc(Cl)c([N+](=O)[O-])c1`, the T/C was 113 % of control under setting [3], 111 % of control under setting [11] and 106 % of control under setting [12].
For `C[NH-].C[NH-].O=C(O)CC(=O)O.[Pt+2]`, the T/C was 108 % of control under setting [13]; 162 % of control under setting [14]; 165 % of control (dose: 200.0 mg/kg/injection, schedule: Q04DX003 (ip), vehicle: saline).
Turning to `CC1OC2COC(C)OC2C(C(O)COC(c2ccccc2)(c2ccccc2)c2ccccc2)O1` (centres undefined), the T/C reads like this: (dose: 1.56 mg/kg/injection, schedule: Q01DX009 (ip), vehicle: Klucel (hydroxypropylcellulose) (HPC)) 89 % of control; (dose: 3.12 mg/kg/injection, schedule: Q01DX009 (ip), vehicle: Klucel (hydroxypropylcellulose) (HPC)) 89 % of control; (dose: 6.25 mg/kg/injection, schedule: Q01DX009 (ip), vehicle: Klucel (hydroxypropylcellulose) (HPC)) 88 % of control; (dose: 50.0 mg/kg/injection, schedule: Q04DX003 (ip), vehicle: Klucel (hydroxypropylcellulose) (HPC)) 92 % of control; (dose: 100.0 mg/kg/injection, schedule: Q04DX003 (ip), vehicle: Klucel (hydroxypropylcellulose) (HPC)) 97 % of control; under setting [7], 109 % of control.
With `COc1cccc2c1C(=O)c1c(O)c3c(c(O)c1C2=O)C[C@@](O)(C(=O)CO)C[C@@H]3OC1CC(N2CCOCC2C#N)C(O)C(C)O1` (some centres undefined), the T/C (dose: 37.5 micrograms/kg/injection, schedule: Q01DX001 (ip), vehicle: water) is 161 % of control.
Regarding `CCN(CC)CCCCNc1ccc(NCCCCN(CC)CC)c2c1C(=O)c1ccccc1C2=O`, the T/C by setting is: under setting [3], 105 % of control; under setting [11], 99 % of control.
`Cc1cc(C(C)(CC(C)C)c2ccc(O)c(C)c2)ccc1O`: the T/C under setting [3] is 107 % of control and the T/C under setting [11] was 94 % of control.
For `C/C(=N/O)[c-]1[c-][c-][c-][c-]1.[Fe].[c-]1[c-][c-][cH-][c-]1`, the T/C runs as follows: (dose: 3.13 mg/kg/injection, schedule: Q01DX009 (ip), vehicle: saline with Tween-80) 91 % of control; (dose: 3.13 mg/kg/injection, schedule: Q04DX003 (ip), vehicle: saline with Tween-80) 98 % of control; under setting [1], 100 % of control; (dose: 6.25 mg/kg/injection, schedule: Q04DX003 (ip), vehicle: saline with Tween-80) 96 % of control; under setting [2], 97 % of control; (dose: 12.5 mg/kg/injection, schedule: Q04DX003 (ip), vehicle: saline with Tween-80) 94 % of control.
For the compound `NC(N)=NC1=NC(=O)CS1`, the T/C is 102 % of control (dose: 50.0 mg/kg/injection, schedule: Q04DX003 (ip), vehicle: saline with Tween-80); 93 % of control under setting [5]; 102 % of control (dose: 100.0 mg/kg/injection, schedule: Q04DX003 (ip), vehicle: saline with Tween-80); 90 % of control under setting [7]; 100 % of control (dose: 200.0 mg/kg/injection, schedule: Q04DX003 (ip), vehicle: saline with Tween-80).
For the compound `CC1CN1P(=O)(N1CC1C)N1CC1C` (centres undefined), the T/C (dose: 6.25 mg/kg/injection, schedule: Q01DX009 (ip), vehicle: saline) was 120 % of control; the T/C (dose: 12.5 mg/kg/injection, schedule: Q01DX009 (ip), vehicle: saline) was 100 % of control and 112 % of control; the T/C (dose: 25.0 mg/kg/injection, schedule: Q01DX009 (ip), vehicle: saline) was 113 % of control; the T/C (dose: 25.0 mg/kg/injection, schedule: Q04DX003 (ip), vehicle: saline) was 113 % of control; the T/C under setting [13] was 120 % of control; the T/C under setting [14] was 93 % of control.
Regarding `c1ccc2c(c1)C1=NCCN1c1ccccc1-2`, the T/C (dose: 12.0 mg/kg/injection, schedule: Q01DX009 (ip), vehicle: saline with Tween-80) is 92 % of control; the T/C (dose: 18.0 mg/kg/injection, schedule: Q01DX009 (ip), vehicle: saline with Tween-80) was 94 % of control; the T/C (dose: 26.0 mg/kg/injection, schedule: Q01DX009 (ip), vehicle: saline with Tween-80) was 102 % of control.
